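These data come from cells grown in 96-well plates and exposed to compound for 48 hours at five concentrations. GI50: concentration for 50% inhibition of growth.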 Activity calls are given as the source filed them. No stated cut-off is given here; in the data, active = GI50 up to about 1.1 µM and inactive = higher.
How the values were obtained:
Test in all cases: growth of human tumour cells (NCI), 48 h
SN12C = tested on: SN12C
SK-OV-3 = tested on: SK-OV-3
DLD-1 = tested on: DLD-1
HOP-62 = tested on: HOP-62
SK-MEL-5 = tested on: SK-MEL-5
EKVX = tested on: EKVX
SK-MEL-2 = tested on: SK-MEL-2
NCI-H522 = tested on: NCI-H522
NCI-H226 = tested on: NCI-H226
HCC 2998 = tested on: HCC 2998
SNB-19 = tested on: SNB-19
786-0 = tested on: 786-0
LOX IMVI = tested on: LOX IMVI
NCI-H460 = tested on: NCI-H460
RPMI-8226 = tested on: RPMI-8226
M19-MEL = tested on: M19-MEL
DU-145 = tested on: DU-145
T47D = tested on: T47D
MDA-MB-231 = tested on: MDA-MB-231
NCI/ADR-RES = tested on: NCI/ADR-RES

Structure (SMILES) | GI50 (SN12C) | GI50 (SK-OV-3) | GI50 (DLD-1) | GI50 (HOP-62) | GI50 (SK-MEL-5) | GI50 (EKVX) | GI50 (SK-MEL-2) | GI50 (NCI-H522) | GI50 (NCI-H226) | GI50 (HCC 2998) | GI50 (SNB-19) | GI50 (786-0) | GI50 (LOX IMVI) | GI50 (NCI-H460) | GI50 (RPMI-8226) | GI50 (M19-MEL) | GI50 (DU-145) | GI50 (T47D) | GI50 (MDA-MB-231) | GI50 (NCI/ADR-RES)
c1ccc(COc2ccc3[nH]c4c5c6ccccc6nc-5c[nH]c4c3c2)cc1 | 15.4 µM (inactive) | 18.4 µM (inactive) | 12.4 µM (inactive) | 15.8 µM (inactive) | 15.7 µM (inactive) | 17.7 µM (inactive) | 16.9 µM (inactive) | 16.7 µM (inactive) | 15.4 µM (inactive) | 10.5 µM (inactive) | 17.7 µM (inactive) | 6.46 µM (inactive) | 18.7 µM (inactive) | 18.6 µM (inactive) | 2.97 µM (inactive) | – | – | – | – | –
COc1ccc(NC(=O)CCc2cc(-c3ccc(O)c(OC)c3)nc(NC#N)n2)cc1 | > 100 µM (inactive) | > 100 µM (inactive) | > 100 µM (inactive) | > 100 µM (inactive) | – | > 100 µM (inactive) | > 100 µM (inactive) | – | > 100 µM (inactive) | > 100 µM (inactive) | > 100 µM (inactive) | > 100 µM (inactive) | > 100 µM (inactive) | > 100 µM (inactive) | – | > 100 µM (inactive) | – | – | – | –
CO/N=C(/C(=O)Nc1c[n+](CC(=O)[O-])cs1)c1csc(N)n1 | > 100 µM (inactive) | > 100 µM (inactive) | > 100 µM (inactive) | – | > 100 µM (inactive) | > 100 µM (inactive) | > 100 µM (inactive) | > 100 µM (inactive) | > 100 µM (inactive) | > 100 µM (inactive) | > 100 µM (inactive) | > 100 µM (inactive) | > 100 µM (inactive) | > 100 µM (inactive) | > 100 µM (inactive) | – | – | – | – | –
Cc1cc(O)nc(NN2C(Cl)C(=O)C2c2ccc(O)cc2)n1 (stereo unspecified) | 11.2 µM (inactive) | 11.3 µM (inactive) | – | 6.17 µM (inactive) | 8.49 µM (inactive) | 13.6 µM (inactive) | 12.6 µM (inactive) | 15 µM (inactive) | 10.5 µM (inactive) | 11.2 µM (inactive) | 11 µM (inactive) | 5.14 µM (inactive) | 2.69 µM (inactive) | 4.8 µM (inactive) | 2.22 µM (inactive) | 10.5 µM (inactive) | 10.9 µM (inactive) | 12.7 µM (inactive) | 14 µM (inactive) | –
CCC(=O)C(C(=O)CC)c1c(OC(=O)c2ccccc2)ccc(O)c1C(=O)OC | > 100 µM (inactive) | > 100 µM (inactive) | – | > 100 µM (inactive) | > 100 µM (inactive) | > 100 µM (inactive) | > 100 µM (inactive) | > 100 µM (inactive) | > 100 µM (inactive) | – | > 100 µM (inactive) | > 100 µM (inactive) | > 100 µM (inactive) | > 100 µM (inactive) | > 100 µM (inactive) | > 100 µM (inactive) | – | – | – | –
CC1OC(OCC2COC(O)(Oc3c(-c4ccc(O)c(O)c4)oc4cc(O)cc(O)c4c3=O)C(O)C2O)C(O)C(O)C1O (stereo unspecified) | > 100 µM (inactive) | > 100 µM (inactive) | > 100 µM (inactive) | > 100 µM (inactive) | > 100 µM (inactive) | > 100 µM (inactive) | – | – | > 100 µM (inactive) | > 100 µM (inactive) | > 100 µM (inactive) | > 100 µM (inactive) | > 100 µM (inactive) | > 100 µM (inactive) | > 100 µM (inactive) | > 100 µM (inactive) | – | – | – | –
O=C(O)CCSC(=O)Nc1ccc([N+](=O)[O-])cc1 | > 100 µM (inactive) | – | > 100 µM (inactive) | > 100 µM (inactive) | – | > 100 µM (inactive) | > 100 µM (inactive) | – | – | > 100 µM (inactive) | > 100 µM (inactive) | > 100 µM (inactive) | > 100 µM (inactive) | > 100 µM (inactive) | > 100 µM (inactive) | – | – | – | – | –
CCOP(=O)(OCC)C1CCCOC1=O (stereo unspecified) | > 100 µM (inactive) | > 100 µM (inactive) | > 100 µM (inactive) | > 100 µM (inactive) | > 100 µM (inactive) | > 100 µM (inactive) | > 100 µM (inactive) | – | – | > 100 µM (inactive) | > 100 µM (inactive) | > 100 µM (inactive) | > 100 µM (inactive) | > 100 µM (inactive) | > 100 µM (inactive) | > 100 µM (inactive) | – | – | – | –
N#CC(C(=O)C(=O)Nc1ccccc1)c1ccccc1 (stereo unspecified) | > 100 µM (inactive) | > 100 µM (inactive) | > 100 µM (inactive) | – | – | > 100 µM (inactive) | > 100 µM (inactive) | > 100 µM (inactive) | > 100 µM (inactive) | – | > 100 µM (inactive) | > 100 µM (inactive) | > 100 µM (inactive) | – | > 100 µM (inactive) | > 100 µM (inactive) | – | – | – | –
OCCNCO | > 100 µM (inactive) | > 100 µM (inactive) | – | > 100 µM (inactive) | > 100 µM (inactive) | > 100 µM (inactive) | > 100 µM (inactive) | > 100 µM (inactive) | > 100 µM (inactive) | – | > 100 µM (inactive) | > 100 µM (inactive) | > 100 µM (inactive) | > 100 µM (inactive) | > 100 µM (inactive) | > 100 µM (inactive) | – | – | – | –
Cc1nn(-c2ccccc2)c(-c2ccccc2[N+](=O)[O-])c1CC#N | > 100 µM (inactive) | > 100 µM (inactive) | – | > 100 µM (inactive) | 7.87 µM (inactive) | > 100 µM (inactive) | > 100 µM (inactive) | 22.2 µM (inactive) | – | > 100 µM (inactive) | > 100 µM (inactive) | > 100 µM (inactive) | > 100 µM (inactive) | > 100 µM (inactive) | 63.2 µM (inactive) | > 100 µM (inactive) | – | – | – | –
Cc1c2c(c(C)n1-c1ccccc1)C(=O)N(CCN1CCN(c3cccc(C(F)(F)F)c3)CC1)C2=O | 45 µM (inactive) | > 100 µM (inactive) | – | > 100 µM (inactive) | 5.25 µM (inactive) | 8.02 µM (inactive) | 0.719 µM (active) | 14.1 µM (inactive) | > 100 µM (inactive) | 97.5 µM (inactive) | > 100 µM (inactive) | 71.8 µM (inactive) | 37.1 µM (inactive) | 45.3 µM (inactive) | 21.5 µM (inactive) | – | > 100 µM (inactive) | 4.29 µM (inactive) | > 100 µM (inactive) | 59.4 µM (inactive)
CCCCc1c2c(nc3c1CCC/C3=C\c1ccccc1)C(=O)CCC2 | 19.6 µM (inactive) | 24.8 µM (inactive) | – | 20.9 µM (inactive) | 16.3 µM (inactive) | 19.1 µM (inactive) | 17.1 µM (inactive) | 13.2 µM (inactive) | 18.4 µM (inactive) | 20.3 µM (inactive) | 20.1 µM (inactive) | 25.2 µM (inactive) | 17.6 µM (inactive) | 34.2 µM (inactive) | 13.7 µM (inactive) | 18.2 µM (inactive) | – | – | – | –
CC(NCc1c(O)ccc2ccc(=O)oc12)C(=O)O (stereo unspecified) | > 100 µM (inactive) | > 100 µM (inactive) | – | > 100 µM (inactive) | > 100 µM (inactive) | > 100 µM (inactive) | > 100 µM (inactive) | > 100 µM (inactive) | > 100 µM (inactive) | > 100 µM (inactive) | > 100 µM (inactive) | > 100 µM (inactive) | > 100 µM (inactive) | > 100 µM (inactive) | > 100 µM (inactive) | – | > 100 µM (inactive) | > 100 µM (inactive) | > 100 µM (inactive) | > 100 µM (inactive)
CO[C@H]1O[C@@H]2OC3(C)CCC4[C@H](C)CCC([C@H]1C)[C@]42OO3 (stereo partly specified) | > 100 µM (inactive) | > 100 µM (inactive) | – | > 100 µM (inactive) | 38 µM (inactive) | > 100 µM (inactive) | > 100 µM (inactive) | > 100 µM (inactive) | > 100 µM (inactive) | > 100 µM (inactive) | > 100 µM (inactive) | > 100 µM (inactive) | > 100 µM (inactive) | > 100 µM (inactive) | 12.1 µM (inactive) | – | > 100 µM (inactive) | 91.6 µM (inactive) | > 100 µM (inactive) | 44.2 µM (inactive)
COc1cc2c3c4[n+](cc2c(OC)c1OC)CCC4CCC3 (stereo unspecified) | > 100 µM (inactive) | > 100 µM (inactive) | – | > 100 µM (inactive) | 21.6 µM (inactive) | > 100 µM (inactive) | > 95.1 µM (inactive) | 51.3 µM (inactive) | > 100 µM (inactive) | > 93.1 µM (inactive) | 48.9 µM (inactive) | > 100 µM (inactive) | > 100 µM (inactive) | > 100 µM (inactive) | 40.4 µM (inactive) | – | > 100 µM (inactive) | 24.9 µM (inactive) | > 100 µM (inactive) | > 100 µM (inactive)
CC1(C)C2CC(=O)C1(C)C(OCc1ccccc1)C2 (stereo unspecified) | 36.6 µM (inactive) | 54.8 µM (inactive) | – | 86.1 µM (inactive) | 26.3 µM (inactive) | > 100 µM (inactive) | > 100 µM (inactive) | 22.2 µM (inactive) | > 100 µM (inactive) | 59.8 µM (inactive) | 88.3 µM (inactive) | 70 µM (inactive) | 22.1 µM (inactive) | 33.3 µM (inactive) | 27.7 µM (inactive) | – | > 100 µM (inactive) | 40.4 µM (inactive) | 44 µM (inactive) | 28.6 µM (inactive)
Cc1cc(C)c2c(O)cc(-c3ccc4ccccc4c3)nc2n1 | 43.7 µM (inactive) | 33.3 µM (inactive) | – | 32.1 µM (inactive) | 2.7 µM (inactive) | 29.5 µM (inactive) | 13.6 µM (inactive) | 21.4 µM (inactive) | 19.5 µM (inactive) | 16.3 µM (inactive) | 30.9 µM (inactive) | 39.8 µM (inactive) | 17.9 µM (inactive) | 9.84 µM (inactive) | 6.31 µM (inactive) | – | 21.7 µM (inactive) | 17.3 µM (inactive) | 23.1 µM (inactive) | 17.1 µM (inactive)
